From paper PMC10250256, “A radiohybrid theranostics ligand labeled with fluorine-18 and lutetium-177 for fibroblast activation protein-targeted imaging and radionuclide therapy” (European Journal of Nuclear Medicine and Molecular Imaging, 2023)

Key:
HT-1080-FAP cells [1] = assay: internalization experiments in HT-1080-FAP cells; format: cell-based, human; conditions: 10 min
Procedure: The human fibrosarcoma cell lines HT-1080 and HT-1080-FAP transferred with human FAP gene were both cultured in Dulbecco modified Eagle medium supplemented with 10% fetal bovine serum (Gibco, USA) at 37℃/5% carbon dioxide. For cell uptake experiments, HT-1080-FAP cells (~ 1 × 10^5/well) or HT-1080 (~ 1 × 10^5/well) were seeded in 24-well plates for 24–48 h and incubated at 37℃ with radiolabeled compounds (74 kBq/well) in 0.5 mL of serum-free medium for indicated times. Non-specific binding was determined by co-incubating with 100 μM FAP inhibitor UAMC1110. For competitive FAP binding assays, HT-1080-FAP cells were incubated with [^177Lu]Lu-FAPI-04 (74 kBq/well) in the presence of different concentrations (10^−3–10^4 nM) of competing non-radioactive ligands. For internalization experiments, the radiotracer-incubated cells were washed twice with PBS (pH 7.4), followed by glycine–HCl (0,05 M, pH = 2.8) solution to distinguish between cell surface–bound (acid-releasable) and internalized (acid-resistant) radioligand. For efflux experiments, cells were preincubated with [^177Lu]21 or [^177Lu]Lu-FAPI-04 for 1 h and subsequently incubated at 37 °C in a medium free of radiotracer and serum for different time periods. […] Cell lysates were collected and the radioactivity was determined using a γ-counter.

[2] = tested on: HT-1080-FAP tumor-bearing mice; assay: biodistribution in HT-1080-FAP tumor-bearing mice; format: in vivo, BALB/C-nu/nu mice; conditions: i.v.
Procedure: All animal experiments were conducted in compliance with a protocol approved by the First Affiliated Hospital of Sun Yat-sen University Institutional Animal Care and Use Committee. BALB/C-nu/nu mice (4–5-week old with body weight of 16–22 g) were purchased from GemPharmatech Co., Ltd. Mice were housed under standard conditions with temperature and light control (12-h-light/12-h-dark cycle) and had free access to water and food. For the tumor model, HT-1080-FAP or HT-1080 cells (5 × 10^6) were subcutaneously injected into the right or left flank of nude mice, respectively. As the tumor diameter reached 3–4 mm, mice were treated with radioligands. Micro-PET and SPECT imaging studies, as well as biodistribution, were conducted when the tumor diameter reached 5–10 mm.
[^177Lu]21 (~ 0.925 MBq) was injected via the tail vein of HT-1080-FAP tumor-bearing mice. The animals were sacrificed at 4, 24, 48 and 96 h pi. Organs of interest were dissected, weighed and counted with a γ-counter. The data were normalized to percentage injected dose (%ID/g) with standard dilution of the initial dose. The biodistribution of [^177Lu]Lu-FAPI-04 was conducted at 24 h pi for comparison.

HT-1080-FAP cells [3] = assay: cell uptake in HT-1080-FAP cells; format: cell-based, human
Procedure: The human fibrosarcoma cell lines HT-1080 and HT-1080-FAP transferred with human FAP gene were both cultured in Dulbecco modified Eagle medium supplemented with 10% fetal bovine serum (Gibco, USA) at 37℃/5% carbon dioxide. For cell uptake experiments, HT-1080-FAP cells (~ 1 × 10^5/well) or HT-1080 (~ 1 × 10^5/well) were seeded in 24-well plates for 24–48 h and incubated at 37℃ with radiolabeled compounds (74 kBq/well) in 0.5 mL of serum-free medium for indicated times. Non-specific binding was determined by co-incubating with 100 μM FAP inhibitor UAMC1110. For competitive FAP binding assays, HT-1080-FAP cells were incubated with [^177Lu]Lu-FAPI-04 (74 kBq/well) in the presence of different concentrations (10^−3–10^4 nM) of competing non-radioactive ligands. For internalization experiments, the radiotracer-incubated cells were washed twice with PBS (pH 7.4), followed by glycine–HCl (0,05 M, pH = 2.8) solution to distinguish between cell surface–bound (acid-releasable) and internalized (acid-resistant) radioligand. For efflux experiments, cells were preincubated with [^177Lu]21 or [^177Lu]Lu-FAPI-04 for 1 h and subsequently incubated at 37 °C in a medium free of radiotracer and serum for different time periods. The medium was removed and the cells were washed twice with cold PBS (pH 7.4) and subsequently lysed with 0.5 mL of NaOH (1 M). Cell lysates were collected and the radioactivity was determined using a γ-counter.

## CC(C)(C)[Si](F)(c1ccc(C(=O)NCC(NC(=O)CCC(C(=O)O)N2CCN(CC(=O)[O-])CCN(CC(=O)[O-])CCN(CC(=O)[O-])CC2)C(=O)NCC2CCC(C(=O)NCCCOc3ccc4nccc(C(=O)NCC(=O)N5CC(F)(F)CC5C#N)c4c3)CC2)cc1)C(C)(C)C.[177Lu+3] (stereo not drawn) [[^177Lu]21]
HT-1080-FAP cells [1]
  internalization rate: > 80%
[2]; 4 h pi
  Tumor/ Kidney ratio: 2.15 ± 0.55
  Tumor/Blood ratio: 2.63 ± 0.23
  Tumor/Liver ratio: 3.98 ± 1.00
  Tumor/Muscle ratio: 6.36 ± 0.27
  uptake in HT-1080-FAP tumor: 9.82 ± 1.35 %ID/g
  uptake in blood: 3.73 ± 0.36 %ID/g
  uptake in bone: 6.76 ± 0.51 %ID/g
  uptake in brain: 0.14 ± 0.01 %ID/g
  uptake in heart: 1.97 ± 0.09 %ID/g
  uptake in intestine: 2.12 ± 0.5 %ID/g
  uptake in kidney: 4.70 ± 0.89 %ID/g
  uptake in liver: 2.56 ± 0.57 %ID/g
  uptake in lung: 3.33 ± 0.97 %ID/g
  uptake in muscle: 1.54 ± 0.14 %ID/g
  uptake in pancreas: 4.03 ± 0.93 %ID/g
  uptake in skin: 3.60 ± 0.56 %ID/g
  uptake in spleen: 1.53 ± 0.25 %ID/g
  uptake in stomach: 1.80 ± 0.52 %ID/g
[2]; 24 h pi
  Tumor/ Kidney ratio: 1.73 ± 0.32
  Tumor/Blood ratio: 13.77 ± 4.99
  Tumor/Liver ratio: 1.84 ± 0.41
  Tumor/Muscle ratio: 7.03 ± 1.39
  uptake in HT-1080-FAP tumor: 2.98 ± 0.98 %ID/g
  uptake in blood: 0.22 ± 0.03 %ID/g
  uptake in bone: 2.46 ± 0.74 %ID/g
  uptake in brain: 0.02 ± 0.00 %ID/g
  uptake in heart: 0.61 ±0.43 %ID/g
  uptake in intestine: 0.37 ± 0.03 %ID/g
  uptake in kidney: 1.72 ± 0.45 %ID/g
  uptake in liver: 1.63 ± 0.44 %ID/g
  uptake in lung: 0.46 ± 0.11 %ID/g
  uptake in muscle: 0.42 ± 0.09 %ID/g
  uptake in pancreas: 0.69 ± 0.14 %ID/g
  uptake in skin: 1.07 ± 0.32 %ID/g
  uptake in spleen: 0.69 ± 0.13 %ID/g
  uptake in stomach: 0.39 ± 0.11 %ID/g
[2]; 48 h pi
  Tumor/ Kidney ratio: 1.60 ± 0.19
  Tumor/Blood ratio: 56.58 ± 6.63
  Tumor/Liver ratio: 3.66 ± 0.52
  Tumor/Muscle ratio: 11.31 ± 1.41
  uptake in HT-1080-FAP tumor: 2.43 ± 0.04 %ID/g
  uptake in blood: 0.04 ± 0.01 %ID/g
  uptake in bone: 3.09 ± 0.86 %ID/g
  uptake in heart: 0.27 ± 0.05 %ID/g
  uptake in intestine: 0.12 ± 0.02 %ID/g
  uptake in kidney: 1.53 ± 0.21 %ID/g
  uptake in liver: 0.67 ± 0.11 %ID/g
  uptake in lung: 0.53 ± 0.4 %ID/g
  uptake in muscle: 0.22 ± 0.03 %ID/g
  uptake in pancreas: 0.35 ± 0.04 %ID/g
  uptake in skin: 0.58 ± 0.09 %ID/g
  uptake in spleen: 0.81 ± 0.18 %ID/g
  uptake in stomach: 0.32 ± 0.04 %ID/g
[2]; 96 h pi
  Tumor/ Kidney ratio: 1.11 ± 0.04
  Tumor/Blood ratio: 102.33 ± 11.24
  Tumor/Liver ratio: 0.93 ± 0.01
  Tumor/Muscle ratio: 9.0 ± 1.35
  uptake in HT-1080-FAP tumor: 1.02 ± 0.11 %ID/g
  uptake in blood: 0.01 ± 0.00 %ID/g
  uptake in bone: 3.02 ± 0.69 %ID/g
  uptake in brain: 0.01 ± 0.00 %ID/g
  uptake in heart: 0.16 ± 0.03 %ID/g
  uptake in intestine: 0.11 ± 0.01 %ID/g
  uptake in kidney: 0.92 ± 0.13 %ID/g
  uptake in liver: 1.10 ± 0.12 %ID/g
  uptake in lung: 0.57 ± 0.34 %ID/g
  uptake in muscle: 0.12 ± 0.03 %ID/g
  uptake in pancreas: 0.15 ± 0.03 %ID/g
  uptake in skin: 0.35 ± 0.05 %ID/g
  uptake in spleen: 0.43 ± 0.07 %ID/g
  uptake in stomach: 0.20 ± 0.01 %ID/g
HT-1080-FAP cells [3]; 1 h incubation
  cell uptake: 72.53% ± 3.43
HT-1080-FAP cells [3]; 24 h incubation
  cell uptake: 45.06% ± 2.62
HT-1080-FAP cells [3]; co-incubation with 100 μM FAP inhibitor UAMC1110
  cell uptake with competitor: could be blocked by FAP inhibitor
